According to PubChem BioAssay AID220 (DTP/NCI, 2004):
“And” between values parts separate entries of the source, which are not always exact repeats. Equal values may be shown once. Results filed as inconclusive are left out. Residues, ends and D or L forms follow the SMILES beside them. *: point of attachment. Trt = c1ccc(C(c2ccccc2)(c2ccccc2)*)cc1; Cbz = O=C(OCc1ccccc1)*

Tested on: CD8F1 mice, subcutaneous mammary adenocarcinoma, T/C%
Experiment: NCI In Vivo Anticancer Drug Screen. Data for tumor model Mammary Adenocarcinoma CD8F1 (subcutaneous) in CD8F1
Details: higher = larger tumour
In short: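 Tumor-bearing mice, transplantable model; readout survival or tumor size; value = treated (T) / vehicle control (C).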

[1] = endpoint: median tumor weight (est.), dose: 50.0 mg/kg/injection, schedule: Q07DX005 (ip), vehicle: saline with Tween-80
[2] = endpoint: median tumor weight (est.), dose: 100.0 mg/kg/injection, schedule: Q07DX005 (ip), vehicle: saline with Tween-80
[3] = endpoint: median tumor weight (est.), dose: 200.0 mg/kg/injection, schedule: Q07DX005 (ip), vehicle: saline with Tween-80
[4] = endpoint: median tumor weight (est.), dose: 12.5 mg/kg/injection, schedule: Q07DX005 (ip), vehicle: Klucel (hydroxypropylcellulose) (HPC)
[5] = endpoint: median tumor weight (est.), dose: 50.0 mg/kg/injection, schedule: Q07DX005 (ip), vehicle: Klucel (hydroxypropylcellulose) (HPC)
[6] = endpoint: median tumor weight (est.), dose: 100.0 mg/kg/injection, schedule: Q07DX005 (ip), vehicle: Klucel (hydroxypropylcellulose) (HPC)
[7] = endpoint: median tumor weight (est.), dose: 200.0 mg/kg/injection, schedule: Q07DX005 (ip), vehicle: Klucel (hydroxypropylcellulose) (HPC)
[8] = endpoint: median tumor weight (est.), dose: 400.0 mg/kg/injection, schedule: Q07DX005 (ip), vehicle: Klucel (hydroxypropylcellulose) (HPC)
[9] = endpoint: median tumor weight (est.), dose: 12.5 mg/kg/injection, schedule: Q07DX005 (ip), vehicle: saline
[10] = endpoint: median tumor weight (est.), dose: 25.0 mg/kg/injection, schedule: Q07DX005 (ip), vehicle: saline
[11] = endpoint: median tumor weight (est.), dose: 25.0 mg/kg/injection, schedule: Q07DX005 (ip), vehicle: Klucel (hydroxypropylcellulose) (HPC)
[12] = endpoint: median tumor weight (est.), dose: 12.5 mg/kg/injection, schedule: Q07DX005 (ip), vehicle: saline with Tween-80
[13] = endpoint: median tumor weight (est.), dose: 25.0 mg/kg/injection, schedule: Q07DX005 (ip), vehicle: saline with Tween-80

OCC1OC(n2cnc3c(=S)nc[nH]c32)C(O)C1O (stereo not given)
T/C [1]: 23 % of control
T/C [2]: 34 % of control
T/C [3]: 13 % of control and 37 % of control
T/C (endpoint: median tumor weight (est.), dose: 400.0 mg/kg/injection, schedule: Q07DX005 (ip), vehicle: saline with Tween-80): 8 % of control and 15 % of control
T/C (endpoint: median tumor weight change, dose: 25.0 mg/kg/injection, schedule: Q01DX001 (ip), vehicle: saline with Tween-80): 73 % of control
T/C (endpoint: median tumor weight change, dose: 50.0 mg/kg/injection, schedule: Q01DX001 (ip), vehicle: saline with Tween-80): 71 % of control
T/C (endpoint: median tumor weight change, dose: 100.0 mg/kg/injection, schedule: Q01DX001 (ip), vehicle: saline with Tween-80): 78 % of control
T/C (endpoint: median tumor weight change, dose: 125.0 mg/kg/injection, schedule: Q01DX001 (ip), vehicle: saline): 78 % of control
T/C (endpoint: median tumor weight change, dose: 200.0 mg/kg/injection, schedule: Q01DX001 (ip), vehicle: saline with Tween-80): 56 % of control
T/C (endpoint: median tumor weight change, dose: 250.0 mg/kg/injection, schedule: Q01DX001 (ip), vehicle: Klucel (hydroxypropylcellulose) (HPC)): 89 % of control
T/C (endpoint: median tumor weight change, dose: 250.0 mg/kg/injection, schedule: Q01DX001 (ip), vehicle: saline): 72 % of control
T/C (endpoint: median tumor weight change, dose: 400.0 mg/kg/injection, schedule: Q01DX001 (ip), vehicle: saline with Tween-80): 60 % of control
T/C (endpoint: median tumor weight change, dose: 500.0 mg/kg/injection, schedule: Q01DX001 (ip), vehicle: Klucel (hydroxypropylcellulose) (HPC)): 79 % of control
T/C (endpoint: median tumor weight change, dose: 500.0 mg/kg/injection, schedule: Q01DX001 (ip), vehicle: saline): 97 % of control
T/C (endpoint: median tumor weight change, dose: 1000.0 mg/kg/injection, schedule: Q01DX001 (ip), vehicle: Klucel (hydroxypropylcellulose) (HPC)): 52 % of control
T/C (endpoint: median tumor weight change, dose: 1000.0 mg/kg/injection, schedule: Q01DX001 (ip), vehicle: saline): 53 % of control
T/C (endpoint: median tumor weight change, dose: 2000.0 mg/kg/injection, schedule: Q01DX001 (ip), vehicle: Klucel (hydroxypropylcellulose) (HPC)): 26 % of control
T/C (endpoint: median tumor weight change, dose: 2000.0 mg/kg/injection, schedule: Q01DX001 (ip), vehicle: saline): 67 % of control

O=C1N[C@@H]([C@H]2CC[C@H](Cl)CN2)C(=O)N[C@H]1[C@H]1CC[C@H](Cl)CN1
T/C (endpoint: median tumor weight (est.), dose: 0.75 mg/kg/injection, schedule: Q07DX005 (ip), vehicle: saline): 40 % of control
T/C (endpoint: median tumor weight (est.), dose: 1.5 mg/kg/injection, schedule: Q07DX005 (ip), vehicle: saline): 29 % of control
T/C (endpoint: median tumor weight (est.), dose: 3.0 mg/kg/injection, schedule: Q07DX005 (ip), vehicle: saline): 11 % of control

CCOc1cc2c(cc1C(C)c1ccc(OC)cc1)OCO2 (stereo not given)
T/C (endpoint: median tumor weight change, dose: 62.5 mg/kg/injection, schedule: Q01DX001 (ip), vehicle: distilled water + alcohol): 102 % of control
T/C (endpoint: median tumor weight change, dose: 125.0 mg/kg/injection, schedule: Q01DX001 (ip), vehicle: distilled water + alcohol): 62 % of control
T/C (endpoint: median tumor weight change, dose: 250.0 mg/kg/injection, schedule: Q01DX001 (ip), vehicle: distilled water + alcohol): 67 % of control
T/C (endpoint: median tumor weight change, dose: 500.0 mg/kg/injection, schedule: Q01DX001 (ip), vehicle: distilled water + alcohol): 91 % of control

NC(Cc1ccc(N(CCCl)Cc2ccccc2)cc1)C(=O)O (stereo not given)
T/C (endpoint: median tumor weight (est.), dose: 6.25 mg/kg/injection, schedule: Q07DX005 (ip), vehicle: distilled water + Tween-80): 84 % of control
T/C (endpoint: median tumor weight (est.), dose: 12.5 mg/kg/injection, schedule: Q07DX005 (ip), vehicle: distilled water + Tween-80): 60 % of control
T/C (endpoint: median tumor weight (est.), dose: 25.0 mg/kg/injection, schedule: Q07DX005 (ip), vehicle: distilled water + Tween-80): 79 % of control
T/C (endpoint: median tumor weight (est.), dose: 50.0 mg/kg/injection, schedule: Q07DX005 (ip), vehicle: distilled water + Tween-80): 25 % of control

CN(C)N=Nc1ccc(S(N)(=O)=O)cc1
T/C [4]: 225 % of control and 117 % of control
T/C [5]: 213 % of control and 73 % of control
T/C [6]: 72 % of control and 93 % of control
T/C [7]: 48 % of control
T/C [8]: 22 % of control

CN(C)CC(Cl)CCl (stereo not given)
T/C (endpoint: mean tumor weight, dose: 50.0 mg/kg/injection, schedule: Q07DX009 (ip), vehicle: saline): 39 % of control
T/C (endpoint: mean tumor weight, dose: 100.0 mg/kg/injection, schedule: Q07DX006 (ip), vehicle: saline): 88 % of control
T/C (endpoint: mean tumor weight, dose: 100.0 mg/kg/injection, schedule: Q07DX009 (ip), vehicle: saline): 94 % of control
T/C (endpoint: mean tumor weight, dose: 200.0 mg/kg/injection, schedule: Q07DX006 (ip), vehicle: saline): 107 % of control
T/C (endpoint: mean tumor weight, dose: 200.0 mg/kg/injection, schedule: Q07DX009 (ip), vehicle: saline): 24 % of control
T/C [9]: 92 % of control
T/C [10]: 97 % of control and 117 % of control
T/C (endpoint: median tumor weight (est.), dose: 200.0 mg/kg/injection, schedule: Q07DX005 (ip), vehicle: saline): 62 % of control and 73 % of control
T/C (endpoint: median tumor weight (est.), dose: 400.0 mg/kg/injection, schedule: Q07DX005 (ip), vehicle: saline): 37 % of control

CC(=O)[O][Pb]([O]C(C)=O)([c]1ccccc1)[c]1ccccc1
T/C [4]: 124 % of control
T/C [11]: 80 % of control
T/C [5]: 65 % of control
T/C [6]: 86 % of control
T/C [7]: 75 % of control
T/C [8]: 29 % of control

Nc1ncnc2c1ccn2C1OC(CO)C(O)C1O (stereo not given)
T/C (endpoint: mean tumor weight, dose: 0.25 mg/kg/injection, schedule: Q01DX009 (ip), vehicle: saline): 162 % of control
T/C (endpoint: mean tumor weight, dose: 0.5 mg/kg/injection, schedule: Q01DX009 (ip), vehicle: saline): 98 % of control
T/C (endpoint: mean tumor weight, dose: 1.0 mg/kg/injection, schedule: Q01DX009 (ip), vehicle: saline): 114 % of control
T/C (endpoint: mean tumor weight, dose: 1.0 mg/kg/injection, schedule: Q07DX005 (ip), vehicle: saline): 117 % of control
T/C (endpoint: mean tumor weight, dose: 4.0 mg/kg/injection, schedule: Q07DX005 (ip), vehicle: saline): 361 % of control
T/C (endpoint: median tumor weight (est.), dose: 0.5 mg/kg/injection, schedule: Q07DX005 (ip), vehicle: Klucel (hydroxypropylcellulose) (HPC)): 195 % of control
T/C (endpoint: median tumor weight (est.), dose: 8.0 mg/kg/injection, schedule: Q07DX005 (ip), vehicle: Klucel (hydroxypropylcellulose) (HPC)): 114 % of control

NC(=O)c1ncn(C2OC(CO)C(O)C2O)c1O (stereo not given)
T/C [5]: 85 % of control
T/C [6]: 105 % of control
T/C [7]: 72 % of control
T/C [8]: 83 % of control

C/C=C/c1cc2c(c(=O)o1)C(=O)[C@@H](O)[C@H](C)O2
T/C [12]: 89 % of control
T/C [13]: 87 % of control
T/C [1]: 102 % of control
T/C [2]: 77 % of control
T/C [3]: 82 % of control

COC(=O)C(CSC(c1ccccc1)(c1ccccc1)c1ccccc1)NC(=O)C(CC(N)=O)NC(=O)OCc1ccccc1 (stereo not drawn) (Cbz-Asn-Cys(Trt)-OMe; configuration not given here)
T/C (endpoint: median tumor weight change, dose: 125.0 mg/kg/injection, schedule: Q01DX001 (ip), vehicle: distilled water + Tween-80): 101 % of control and 116 % of control
T/C (endpoint: median tumor weight change, dose: 500.0 mg/kg/injection, schedule: Q01DX001 (ip), vehicle: distilled water + Tween-80): 50 % of control
T/C (endpoint: median tumor weight change, dose: 2000.0 mg/kg/injection, schedule: Q01DX001 (ip), vehicle: distilled water + Tween-80): 40 % of control and 57 % of control

ClC(Cl)=C(Cl)Cl
T/C (endpoint: median tumor weight change, dose: 62.5 mg/kg/injection, schedule: Q01DX001 (ip), vehicle: other): 157 % of control
T/C (endpoint: median tumor weight change, dose: 125.0 mg/kg/injection, schedule: Q01DX001 (ip), vehicle: other): 191 % of control

COc1ccc2nc3cc(Cl)ccc3c(NCCNCCNCCNc3c4ccc(Cl)cc4nc4ccc(OC)cc34)c2c1
T/C [12]: 86 % of control and 108 % of control
T/C [13]: 68 % of control
T/C [1]: 88 % of control

N=C(N)CCCCCCCCC(=N)N
T/C (endpoint: median tumor weight (est.), dose: 3.12 mg/kg/injection, schedule: Q07DX005 (ip), vehicle: Klucel (hydroxypropylcellulose) (HPC)): 67 % of control
T/C (endpoint: median tumor weight (est.), dose: 3.12 mg/kg/injection, schedule: Q07DX005 (ip), vehicle: saline): 86 % of control
T/C (endpoint: median tumor weight (est.), dose: 6.25 mg/kg/injection, schedule: Q07DX005 (ip), vehicle: Klucel (hydroxypropylcellulose) (HPC)): 123 % of control
T/C (endpoint: median tumor weight (est.), dose: 6.25 mg/kg/injection, schedule: Q07DX005 (ip), vehicle: saline): 78 % of control
T/C [4]: 34 % of control
T/C [9]: 76 % of control
T/C [11]: 31 % of control
T/C [10]: 28 % of control
T/C (endpoint: median tumor weight change, dose: 8.0 mg/kg/injection, schedule: Q01DX001 (ip), vehicle: saline): 61 % of control
T/C (endpoint: median tumor weight change, dose: 15.63 mg/kg/injection, schedule: Q01DX001 (ip), vehicle: saline): 77 % of control
T/C (endpoint: median tumor weight change, dose: 16.0 mg/kg/injection, schedule: Q01DX001 (ip), vehicle: saline): 186 % of control
T/C (endpoint: median tumor weight change, dose: 31.25 mg/kg/injection, schedule: Q01DX001 (ip), vehicle: saline): 76 % of control
T/C (endpoint: median tumor weight change, dose: 32.0 mg/kg/injection, schedule: Q01DX001 (ip), vehicle: saline): 48 % of control

CC1(C)CC1(Br)Br
T/C [12]: 69 % of control
T/C [13]: 90 % of control
T/C [1]: 116 % of control
T/C [2]: 59 % of control
